Experimental data published in patent US20030092644A1, “Treatment of viral infections using levovirin” (priority 2002, published 2003).
Read-outs that look alike come from different tables or passages of the source.

What was measured:
Parainfluenza (PARA) 1 = experiment: organism not typed; type: cell-based, Parainfluenza 1; settings: read-out: Dir. Antiviral activity (EC50) PARA 1
Parainfluenza (PARA) 3 = experiment: organism not typed; type: cell-based, Parainfluenza 3; settings: read-out: Dir. Antiviral activity (EC50) PARA 3
TNF-α = experiment: SEB-activated T cell cytokine ELISA, TNF-α; type: cell-based, human
IFN-γ = experiment: SEB-activated T cell cytokine ELISA, IFN-γ; type: cell-based, human
[1] = tested on: human immunodeficiency virus (HIV); experiment: microbe, parasite or virus in culture; type: cell-based; settings: Human immunodeficiency virus 1, read-out: Dir. Antiviral activity (EC50) HIV
Hepatitis B (HBV) = experiment: microbe, parasite or virus in culture; type: cell-based; settings: read-out: Dir. Antiviral activity (EC50) HBV
[2] = tested on: cells infected with Parainfluenza 3
Influenza (INFL) A = experiment: microbe, parasite or virus in culture; type: cell-based; settings: read-out: Dir. Antiviral activity (EC50) INFL. A
[3] = tested on: cells infected with Influenza B; experiment: Cytotoxicity in Influenza B assay; type: cell-based; settings: read-out: Cytotoxicity (CC50) INFL. B
Procedure: (§1) In vitro testing for direct antiviral activity of Levovirin™ and Ribavirin against influenza A and B, parainfluenza 1 and 2, and respiratory syncytial virus were performed as described in Huffman, J. H. et al. Antiviral Chem. and Chemother. 1997, 8: 75-83 and Barnard, D. L. et al. Antiviral Chem. and Chemother 1997, 8: 223-233. Anti-human immunodeficiency virus activity was assessed by the National Cancer Institute using a procedure designed to detect agents acting at any stage of the virus reproductive cycle [Weislow, O. W. et al., J. Natl. Cancer Inst. 1989, 81: 577-5861. Anti-hepatitis B (HBV) activity was monitored by using an assay as described by Marion et al., Hepatology 1987, 7: 724-731. Anti-HIV activity and cytotoxicity for Ribavirin was determined from previous data [McCormick, J. B., Lancet, 1998, II: 1367-1369.

[4] = tested on: respiratory syncytial virus (RSV); experiment: microbe, parasite or virus in culture; type: cell-based; settings: human respiratory syncytial virus, read-out: Dir. Antiviral activity (EC50) RSV
[5] = tested on: cells infected with Parainfluenza 1
[6] = tested on: cells infected with Influenza A; experiment: Cytotoxicity in Influenza A assay; type: cell-based; settings: read-out: Cytotoxicity (CC50) INFL. A
Procedure: as §1

rats = settings: rat, in vivo, po, 180 mg/kg
IL-2 = experiment: SEB-activated T cell cytokine ELISA, IL-2; type: cell-based, human
cells infected with HIV [7] = tested on: cells infected with HIV
[8] = tested on: Concanavalin A induced hepatitis; type: in vivo; settings: BALB/c mice, single i.p. dose 20 μg (1 mg/kg) 1 hr before i.v. 0.3 mg Con A; serum after 24 hr; PBS control about 1900 U/ml
Influenza (INFL) B = experiment: Direct antiviral activity, Influenza B; type: cell-based; settings: Influenza B virus; read-out: Dir. Antiviral activity (EC50) INFL. B
Procedure: as §1

[9] = Cytotoxicity in Influenza B assay; type: cell-based; settings: cells infected with Influenza B; read-out: Cytotoxicity (CC50) INFL. B
Procedure: as §1

[10] = tested on: human immunodeficiency virus (HIV); settings: read-out: Dir. Antiviral activity (EC50) HIV; cited from earlier work
[11] = Cytotoxicity in Influenza A assay; type: cell-based; settings: cells infected with Influenza A; read-out: Cytotoxicity (CC50) INFL. A
Procedure: as §1

cells infected with HIV [12] = settings: cited from earlier work
[13] = SEB stimulated T cells, 48 hrs, 0-10 μM compound, +/- standard deviation, 100% = no effect

## NC(=O)c1ncn([C@H]2O[C@@H](CO)[C@H](O)[C@@H]2O)n1 [Levovirin™, 1-(β-L-ribofuranosyl)-1,2,4-triazole-3-carboxamide]
Parainfluenza (PARA) 1
  EC50: > 1000 µM
Parainfluenza (PARA) 3
  EC50: > 1000 µM
TNF-α
  TNF-α, mean percentage of activated control: 144 ± 7%
IFN-γ
  IFN-γ, mean percentage of activated control: 122 ± 3%
[1]
  EC50: > 600 µM
Hepatitis B (HBV)
  EC50: > 100 µM
[2]
  CC50: > 1000 µM
Influenza (INFL) A
  EC50: > 200 µM
[3]
  CC50: > 200 µM
[4]
  EC50: > 1000 µM
[5]
  CC50: > 1000 µM
[6]
  CC50: > 200 µM
rats
  Clinical pathology (hemolytic anemia, leukopenia): did not produce any observable clinical pathology
IL-2
  IL-2, mean percentage of activated control: 131 ± 12%
Cells infected with HIV [7]
  CC50: > 600 µM

## NC(=O)c1ncn([C@@H]2O[C@H](CO)[C@@H](O)[C@H]2O)n1 [Ribavirin]
[8]
  Con A induced serum ALT level: 969 U/ml
Parainfluenza (PARA) 1
  EC50: 40 µM
Parainfluenza (PARA) 3
  EC50: 4 µM
TNF-α; [13]
  TNF-α, mean percentage of activated control: 124 ± 4%
Influenza (INFL) B
  EC50: 1.9 µM
IFN-γ; [13]
  IFN-γ, mean percentage of activated control: 131 ± 6%
Hepatitis B (HBV)
  EC50: > 100 µM
Influenza (INFL) A
  EC50: 6.1 µM
[9]
  CC50: > 100 µM
[4]
  EC50: 5 µM
[10]
  EC50: 40 µM
[11]
  CC50: 56 µM
rats
  Clinical pathology (hemolytic anemia, leukopenia): produced significant hemolytic anemia and leukopenia
IL-2; [13]
  IL-2, mean percentage of activated control: 143 ±18%
Cells infected with HIV [12]
  CC50: > 40 µM
